Series [1] relates to mice. To be noted: at about 35 μg B/gbw; cited from earlier work.
Series [2] deals with brain tumors. To be noted: mouse, in vivo; cited from earlier work.
Series [3] concerns mice. The series can be described thus: Subacute toxicity in mice judged by hematological and chemical tests of the blood 5 days after i.p. injection. Type of series: in vivo, female mice (BNL Hale-Stoner strain). As for the experimental part:
C) 0.9% NaCl in water (saline) (7 mice).
Injection volumes were all 0.015 mL/gbw.
Inadvertently,the BSSB group (Group A) received 17 μg ^10 B/gbw, only about one-third of the intended boron dose, 50 μg/gbw. Nevertheless, it is useful to compare the subacute toxicity of a relatively high dose of a substance, IBSSB, which had never before been tested in an animal, with that of its parent compound, BSSB, which is known to be non-lethal at about 35 μg B/gbw, i.e., twice the lower of the two boron doses used See Slatkin et al., "Boron Uptake in Melanoma, Cerebrum and Blood from Na2 B12 H11 SH and Na4 B24 H22 S2 Administered to Mice", Biochem. Pharm., 35, 1771 (1986).
See Miura et al., "Biodistribution and Toxicity of 2,4-Divinyl-nido-carboranyldeuterophorphyrin IX in Mice". Biochem. Pharm., 43, 467 (1992). It therefore appears that the periodinated borane is not more toxic than the non-iodinated borane.

For series [4] the following is noted: mouse, in vivo.
Protocol: Three groups of female mice (BNL Hale-Stoner strain) were given a single intraperitoneal (i.p.) injection of:
Injection volumes were all 0.015 mL/gbw. Five days after the injection, mice were euthanized by deep halothane inhalation anesthesia. Thoracotomy was performed, and about 0.7-0.9 mL blood was removed through the right ventricle. Hematological and chemical analyses were performed on blood specimens from each mouse.
(mg/dL), blood urea nitrogen [BUN] (mg/dL), blood creatinine [BCR] (mg/dL) aspartate transaminase [AST] (U/L), alanine transaminase [ALT] (U/L), alkaline phosphatase [ALP] (U/L), creatine phosphokinase [CPK] (U/L), total protein [TPR] (g/dL), albumin [ALB] (g/dL), calcium [CA] (mg/dL), chloride [CHL] (meg/L), inorganic phosphorus [P] (mg/dL), potassium [K] (meg/L), and sodium [SOD] (meg/L) .

The source of these data is patent publication US5653957A, “Halogenated sulfidohydroboranes for nuclear medicine and boron neutron capture therapy” (Associated Universities, Inc., priority 1996, dated 1997).

As to BSSB, the lethality result in series [1] was “non-lethal”. Further, the “accumulation in brain tumors vs the monomeric form” value in series [2] is “more readily accumulated in brain tumors than the monomeric form”. Moreover, the “fourteen chemical and thirteen hematological tests, BSSB (Group A) vs IBSSB (Group B)” value in series [3] (mouse, in vivo) is “no significant differences between the two groups”.
On to “periodinated dimeric sulfidohydrododecaborane [IBSSB]”, for which, in series [3] (mouse, in vivo), the “fourteen chemical and thirteen hematological tests, BSSB (Group A) vs IBSSB (Group B)” value was “no significant differences between the two groups”; the hepatotoxicity entry is recorded as “may be slightly hepatotoxic to mice”; the “other differences between mice in groups B and C” value was “No other differences were noted”; the significant toxicity result is on record as “no evidence of significant toxicity”. Also, the “toxicity judged by hematological and chemical tests of the blood, vs BSSB” value in series [3] (single i.p. 50 μg B/gbw, vs three-fold less BSSB, 5 days later) was “only minimally more toxic”. In series [4], the “alanine transaminase [ALT]” value was 22 U/L, the “albumin [ALB]” value worked out at 3.3 g/dL, the “alkaline phosphatase [ALP]” value was determined as 110 U/L and the “aspartate transaminase [AST]” value worked out at 44 U/L. Besides, in series [4], the “blood creatinine [BCR]” value was found to be 0.5 mg/dL, the “blood urea nitrogen [BUN]” value is 28 mg/dL, the “calcium [CA]” value was 11.5 mg/dL and the “chloride [CHL]” value is 116 meg/L. In series [4], the “creatine phosphokinase [CPK]” value is recorded as 35 U/L, the “glucose [GLU]” value worked out at 278 mg/dL, the “inorganic phosphorus [P]” value was found to be 9.9 mg/dL and the “potassium [K]” value stood at 7.1 meg/L. For the same substance, in series [4], the “sodium [SOD]” value is on record as 154 meg/L and the “total protein [TPR]” value came to 5.9 g/dL.
